Data on 22 molecules can be found in patent US5385842A, “Anthraquinones as inhibitors of sulfide production from sulfate-reducing bacteria” (E. I. Du Pont de Nemours and Company, priority 1993, dated 1995).

The experiment relates to Desulfovibrio desulfuricans G100A. The experiment is described as follows: microbe, parasite or virus in culture. The following applies: for % Inhib. (inhibition of sulfide production): 10 ppm; for inhibition at 10 ppm / inhibition at 30 ppm: Desulfovibrio desulfuricans, G100A, read-out: % Inhib. (inhibition of sulfide production). It is filed as cell-based.

Consider “1,1'-Iminobis[4-amino]9,10-anthracenedione, sulfonated [Acid black 48]”, for which the “% Inhib. (inhibition of sulfide production)” value was 13.8%.
Regarding “1-Amino-4[4-[[4-chloro-6-[2,3 or 4-sulfophenyl]-amino]-1,3,5-triazin-2-yl]amino]-3-sulfophenyl]-amino]-9,10-dihyro-9,10-dioxo-2-anthracenesulfonic acid [Reactive blue 2]”, the “% Inhib. (inhibition of sulfide production)” value amounted to 17.5%.
Usually inhibition stands for the share of the control response that was lost under treatment. For the molecule `CC(=O)OC1C=CCC2C(=O)c3cccc(O)c3C(=O)C12` (racemic) [(+,-)-1-Acetoxy-8-hydroxy-1,4,4a,9a-tetrahydroanthraquinone], the inhibition at 10 ppm is 28.1%.
For `O=C1c2ccccc2C(=O)c2c1cccc2-c1cccc2c1C(=O)c1ccccc1C2=O` [1,1'-Bianthraquinone, [1,1'-Bianthracene]-9,9'10,10'-tetrone], the inhibition at 30 ppm turned out to be 12.9%.
The same measure, in the same setting: the same measure for `O=C1c2ccccc2C(=O)c2c([N+](=O)[O-])ccc(Nc3ccc([N+](=O)[O-])c4c3C(=O)c3ccccc3C4=O)c21` [1,1'-Iminobis(4-nitro-9,10-anthracenedione)]: 5.7%.
With `Nc1ccc2c(c1N)C(=O)c1ccccc1C2=O` [1,2-Diaminoanthraquinone], the inhibition at 10 ppm came out at 28.9%.
For the molecule `O=C1c2ccccc2C(=O)C2CC=CCC12` (stereo not shown) [1,4,4a,9a-Tetrahydroanthraquinone], the inhibition at 10 ppm lay in the range of 0 to 7%.
Take `O=C1c2c(Cl)ccc(Cl)c2C(=O)c2c(Cl)ccc(Cl)c21` [1,4,5,8-Tetrachloroanthraquinone]: the inhibition at 30 ppm is 50.6%.
Same read-out and setting: the same measure for `CNc1ccc(NC)c2c1C(=O)c1ccccc1C2=O` [1,4-Bis(methylamino)-anthraquinone]: 8.6%; for `CCc1cc(CC)c(Nc2ccc(Nc3c(CC)cc(CC)cc3CC)c3c2C(=O)c2ccccc2C3=O)c(CC)c1` [1,4-Bis[(2,4,6-triethylphenyl)amino]-9,10-anthracenedione]: 4.3%.
For the molecule `CC(C)Nc1ccc(NC(C)C)c2c1C(=O)c1ccccc1C2=O` [1,4-Di(isopropylamino)anthraquinone, 1,4-Bis[(1-methylethyl)amino]-9,10-anthracenedione], the inhibition at 30 ppm is 5%.
The same measure, in the same setting: the same measure for `Nc1c(OCCOc2ccccc2)c(OCCOc2ccccc2)c(N)c2c1C(=O)c1ccccc1C2=O` [1,4-Diamino-2,3-bis(2-phenoxyethoxy)anthraquinone]: 7.8%; for `Nc1ccc(N)c2c1C(=O)c1cccc([N+](=O)[O-])c1C2=O` [1,4-Diamino-5-nitroanthraquinone]: 2.7 to 3%.
Consider `Nc1ccc(N)c2c1C(=O)c1ccccc1C2=O` [1,4-Diaminoanthraquinone], for which the inhibition at 10 ppm was found to be 27.5%.
Take `O=C1c2ccccc2C(=O)c2c(O)ccc(O)c21` [1,4-Dihydroxyanthraquinone]: the inhibition at 30 ppm was 5.2%.
The same measure, in the same setting: as for `Cc1ccc(C)c2c1C(=O)c1ccccc1C2=O` [1,4-Dimethylanthraquinone], the figure is 5.2%.
The same measure, in the same setting: as for `Nc1ccc(O)c2c1C(=O)c1c(O)ccc(N)c1C2=O` [1,5-Diamino-4,8-dihydroxyanthraquinone], the figure is 2.6%.
The same measure, in the same setting: the same measure for `O=C(Nc1cccc2c1C(=O)c1cccc(NC(=O)c3ccccc3)c1C2=O)c1ccccc1` [1,5-Dibenzamidoanthraquinone, N,N'-(9,10-Dihydro-9,10-dioxo-1,5-anthracenediyl)-bisbenzamide]: 0%; for `O=C1c2cccc(Cl)c2C(=O)c2cccc(Cl)c21` [1,5-Dichloroanthraquinone]: 100%.
Take `O=C1c2cccc(O)c2C(=O)c2cccc(O)c21` [1,5-Dihydroxyanthraquinone]: the inhibition at 10 ppm was determined as 31%.
In the case of `O=C1c2cccc(OCc3ccccc3)c2C(=O)c2c(OCc3ccccc3)cccc21` [1,8-Dibenzyloxyanthraquinone, 1,8-Bis(phenylmethoxy)-9,10-anthracenedione], the inhibition at 30 ppm worked out at 4.5%.
Still for that read-out and setting: as for `O=C1c2cccc(Cl)c2C(=O)c2c(Cl)cccc21` [1,8-Dichloroanthraquinone], the figure is 3.9%.
